# Test results as given in US20210386709A1, “COMPOSITIONS AND METHODS FOR SUPPRESSING MSUT2” (United States Government As Represented By The Department …, priority 2020, published 2021).
# Columns and labels:
# [1] = in vivo; cited from earlier work
# PABPN1 = molecular target: T1, PABPN1 (Homo sapiens, UniProt Q86U42); assay: PABPN1 fluorescence polarization counter screen; assay type: binding
# T1 construct: made in house; host or cells: E. coli BL21 (DE3)
# T1 sequence (Q86U42 1-306): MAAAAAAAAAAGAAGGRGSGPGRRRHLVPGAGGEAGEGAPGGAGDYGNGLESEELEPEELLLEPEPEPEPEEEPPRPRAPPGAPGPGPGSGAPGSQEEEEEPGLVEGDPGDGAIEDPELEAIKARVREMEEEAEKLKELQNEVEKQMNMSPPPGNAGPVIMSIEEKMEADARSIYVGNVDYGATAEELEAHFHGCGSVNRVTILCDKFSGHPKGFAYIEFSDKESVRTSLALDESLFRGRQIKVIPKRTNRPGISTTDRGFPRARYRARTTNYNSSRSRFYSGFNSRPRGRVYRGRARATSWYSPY
# Method: A drug repurposing strategy: screening of the NIH Clinical Collection compound library. […] The plan to find suitable lead compounds for drug repurposing began with a screen of the NIH Clinical Collection (NIHCC) library. The NIHCC consists of a diverse array of 700 compounds with historical pharmacological use and well-studied safety profiles. […] An orthogonal poly(A):MSUT2 binding assay allowed the ruling out of assay interference while selectivity against MSUT2 over PABPN1 was determined by a parallel FP assay with PABPN1 as the RBP. […] Thus, the goal was to eliminate compounds interfering with both PABN1 and MSUT2 and focus on compounds truly specific for poly(A):MSUT2 binding.
# (§1) Identification and validation of MSUT2 inhibitory compounds from NIHCC library. […] IC50 of each of the previous 8 compounds was determined for PABPN1 using fluorescence polarization (FIG. 11), and a specificity ratio determined (Table 3). An Alpha Screen (AS) assay was developed as an orthogonal screen. Briefly, in this screen, biotinylated RNA binds streptavidin-coated donor beads, while GST-MSUT2 ZF binds glutathione-coated acceptor beads. When donor beads and acceptor beads are brought within close proximity of one another, laser excitation leads to fluorophore emission of the acceptor bead via excited singlet oxygen activating chemiluminescers in the acceptor beads. […] Toxicity of these compounds in a HEK cell model was determined using a standard Promega Cell Titer Glo assay.
# (§2) Fluorescence Polarization Assay. […] of stock compound was transferred yielding 10 μM final concentration. […] Fluorescence polarization was calculated by first subtracting background from a buffer-only control well and then using the equation
# poly(A) = conditions: cited from earlier work
# GST-MSUT2 = molecular target: T2, GST-MSUT2 (Homo sapiens, UniProt Q6PJT7); assay: Alpha Screen assay of biotinylated poly(A) RNA:GST-MSUT2 binding; conditions: orthogonal dose-response validation
# T2 construct: Targeted construct consisted of the c-terminal end (dark blue and amino acids 601-736) of MSUT2; made in house; host or cells: E. coli BL21 (DE3)
# T2 sequence (Q6PJT7 601-736): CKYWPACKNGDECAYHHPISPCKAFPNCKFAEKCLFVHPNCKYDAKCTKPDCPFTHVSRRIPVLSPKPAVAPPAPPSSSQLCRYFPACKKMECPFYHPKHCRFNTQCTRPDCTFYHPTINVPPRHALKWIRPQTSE
# Method: Alpha Screen Assay. Samples were set up in 384 well Perkin Elmer white opaque-bottom plates (PE06). A total reaction volume of […] was plated in 384 format using a CyBio Well Vario (6 μL of donor beads (10 μg/mL), 3 μL biotinylated RNA (250 nM), 3 μL GST-MSUT2 protein (250 nM) per well). 50 nL of compounds were transferred to wells via CyBio Vario equipped with Pin Tool. This mixture was incubated at room temperature for 30 minutes away from light. Next 3 μL of acceptor beads (1.25 μg/mL) was added. Plates were incubated at room temperature away from light for 60 minutes and subsequently read on a Perkin Elmer EnVision multimode microplate reader equipped with stackers using a standard 384-well Alpha Assay software protocol.
# Results. Alpha Screen design and underlying principle. Alpha Screen technology relies on donor beads, coated with a hydrogel excitable by 680 nm, brought within close proximity to an acceptor bead leading to light emission and detection. In this assay, streptavidin coated donor beads tightly bind to biotinylated-poly(A) RNA while the glutathione-coated acceptor bead binds to GST-tagged MSUT2 protein. […] When this interaction is blocked by an inhibitor, the proximity threshold for donor and acceptor beads is not met, singlet oxygen transference cannot occur, and light is not emitted by the acceptor bead (FIG. 1a).
# Identification and validation of MSUT2 inhibitory compounds from NIHCC library. The single-point primary screen was conducted in duplicate and utilized the FP assay conditions determined herein (e.g., 125 nM MSUT2 RNABP and 10 nM FAM-RNA probe) with 10 μM library compounds added in a 96-well format. […] Compound specificity was empirically tested by counter screening against PABPN1, a regulator of the length of mRNA poly(A) tails (Apponi, L. H. et al. Hum Mol Genet 19, 1058-1065, (2010); and Benoit, B. et al. Dev Cell 9, 511-522, (2005)). IC50 of each of the previous 8 compounds was determined for PABPN1 using fluorescence polarization (FIG. 11), and a specificity ratio determined (Table 3). An Alpha Screen (AS) assay was developed as an orthogonal screen. Briefly, in this screen, biotinylated RNA binds streptavidin-coated donor beads, while GST-MSUT2 ZF binds glutathione-coated acceptor beads. […] Toxicity of these compounds in a HEK cell model was determined using a standard Promega Cell Titer Glo assay.
# Alpha Screen Assay. […] The plate was then incubated again at room temperature away from light for 60 minutes and subsequently read on a Perkin Elmer EnSight multimode microplate reader using a standard 96-well Alpha Assay protocol.
# MSUT2 ZF = molecular target: T3, MSUT2 ZF (Homo sapiens, UniProt Q6PJT7); assay: Fluorescence polarization assay of FAM-poly(A) RNA:MSUT2 ZF binding
# T3 construct: Targeted construct consisted of the c-terminal end (dark blue and amino acids 601-736) of MSUT2; made in house; host or cells: E. coli BL21 (DE3)
# T3 sequence (Q6PJT7 601-736): T2 sequence (Q6PJT7 601-736)
# Method: Fluorescence Polarization Assay. […] 2 μL of compound was transferred for a final concentration of 10 μM. […] Fluorescence polarization was calculated by first subtracting background from a buffer-only control well and then using the equation
# Results and Discussion. A high-throughput fluorescence polarization assay for inhibition of poly(A):MSUT2 RNA interaction. […] In order to screen potential inhibitors of MSUT2 RBP and RNA by FP, fluorescent FAM (fluorescein amidite)-labeled poly(A)15 RNA (FAM-RNA) and recombinant MSUT2 ZF (zinc finger) protein expressing constructs were generated (FIG. 7a). […] Inhibition of the interaction results in unbound FAM-RNA tumbling at a relatively rapid rate and emitting non-polarized light (FIG. 7b).
# To determine the concentrations of both MSUT2 ZF protein and FAM-RNA probe useful in the methods described herein, a two dimensional titration of protein and RNA concentrations in 96-well format was performed. […] Next, the binding constant between MSUT2 ZF and FAM-RNA was determined by holding FAM-RNA constant at 10 nM while increasing MSUT2 ZF concentration.
# as §1, §2
# [2] = molecular target: 3′,5′-cyclic phosphodiesterase; conditions: read-out: Ki (nM) for Known Target; cited from earlier work
# [3] = system: rat model of chronic cerebral hypoperfusion; conditions: cited from earlier work
# elderly patients = conditions: 10 year study of 20,215 elderly patients; cited from earlier work
# Method for HEK-293 cells: Cell culture and cytotoxicity screen. […] Cell viability was assessed as using Promega Cell Titer Glo (Promega G7570) per manufacturer protocol. Briefly, HEK-293 cells were grown to 70% confluence in a 96 well plate were treated with indicated concentrations of compounds and incubated for 72 hours at 37° C. Plates were read for luminescence on Perkin Elmer Enspire Alpha.
# Cell viability was assessed. Briefly, HEK-293 cells grown to 70% confluence in a 96 well dish were treated with varying concentrations of compound (final concentration of 2% DMSO) and incubated for 72 hours. Next, Promega Cell Titer Glo assay was used to assess viability per manufacturer instructions (Promega G7570).
structure (smiles),measurement,setting,value
"O=S(=O)(O)c1cc(N=C=S)ccc1C=Cc1ccc(N=C=S)cc1S(=O)(=O)O [4,4-diisothiocyanostilbene-2,2′-sulfonic acid]",toxicity (effect on cell viability),HEK-293 cells,relatively non-toxic at the doses tested
CC(C)/N=c1\cc2n(-c3ccc(Cl)cc3)c3ccccc3nc-2cc1Nc1ccc(Cl)cc1 [Clofazimine],crossing of the blood brain barrier,[1],unable to cross the blood brain barrier
same,IC50,"PABPN1; fluorescence polarization counter screen, unit inferred, read-out: IC50PABPN1",50.6 µM
same,PABPN1/MSUT2 specificity ratio,PABPN1; ratio of FP IC50s,51.07
same,interaction with poly(A),poly(A),little interaction
same,inhibition activity by Alpha Screen (AS),GST-MSUT2,dose-dependent inhibition activity
same,Ki,"MSUT2 ZF; calculated by Cheng Prusof equation Ki=(IC50)/[(L/Kd)+1], FP dose response, read-out: Ki (nm) for MSUT2",0.978 µM
same,IC50,MSUT2 ZF; read-out: IC50MSUT2,0.99 µM
OCCN(CCO)c1nc(N2CCCCC2)c2nc(N(CCO)CCO)nc(N3CCCCC3)c2n1 [Dipyridamole],Ki,[2],1000 nM
same,Ki (nm) for MSUT2,"MSUT2 ZF; calculated by Cheng Prusof equation Ki=(IC50)/[(L/Kd)+1], FP dose response",failed DR
CNCC[C@H](Oc1cccc2ccccc12)c1cccs1 [Duloxetine],neuronal loss in the hippocampus,[3],attenuated neuronal loss in the hippocampus
same,risk of dementia,elderly patients,associated with reduced risk of dementia
same,IC50PABPN1,"PABPN1; fluorescence polarization counter screen, unit not given",None
same,inhibition activity by Alpha Screen (AS),GST-MSUT2,dose-dependent inhibition activity
